From paper PMC8770581 (ChemMedChem, 2021) come the findings set out here.

The nature of series [1]: Absorption/emission maxima and fluorescence quantum yield of free ligand in PBS. The series is classed as physicochemical. The conditions noted are these: free ligand in PBS.
In series [2] the target is α-syn fibrils (Homo sapiens, UniProt P37840). In words: α-Synuclein fibril/ligand saturation binding assay.
Where [3] appears, read: Kd α-syn, Table 1, synthetic α-syn fibrils 2.5 μM, 1 hour, mean ± SD (n = 3).
Setting [4] is: Kd α-syn (reported as no binding), α-syn fibrils, saturation binding.

Regarding `CN(C)c1ncc(-c2ccc(/C=C3/Cc4ccccc4C3=O)s2)cn1` [compound 41, (Z)-2-((5-(2-(Dimethylamino)pyrimidin-5-yl)thiophen-2-yl)methylene)-2,3-dihydro-1H-inden-1-one], in series [1], the Absmax turned out to be 410 and the Emmax amounted to 567. Moreover, the Kd in series [2] (setting [3]) was determined as 272 ± 29.9 nM.
For `O=C(O)c1ccc(-c2ccc(/C=C/C=C3C(=O)c4ccccc4C3=O)cc2)cc1` [compound 34, (E)-4'-(3-(1,3-Dioxo-1,3-dihydro-2H-inden-2-ylidene)prop-1-en-1-yl)-[1,1'-biphenyl]-4-carboxylic acid] the same measures were 358, 409 and 1430 ± 46.8 nM.
For `CN(C)c1ncc(-c2ccc(/C=C3/CCc4ccccc4C3=O)s2)cn1` [compound 51, (Z)-2-((5-(2-(Dimethylamino)pyrimidin-5-yl)thiophen-2-yl)methylene)-3,4-dihydronaphthalen-1(2H)-one] the same measures were 442, 613 and 107 ± 7.5 nM.
In series [1], `CN(C)c1ncc(-c2ccc(/C=C3/Cc4ccc(O)cc4C3=O)s2)cn1` [compound 43, (Z)-2-((5-(2-(Dimethylamino)pyrimidin-5-yl)thiophen-2-yl)methylene)-6-hydroxy-2,3-dihydro-1H-inden-1-one] showed an Absmax of 386 and an Emmax of 572. The same compound registered a Kd in series [2] (setting [3]) of 236 ± 10.4 nM.
Consider `O=C1C(=Cc2cc(-c3ccc(Br)cc3)no2)C(=O)c2ccccc21` [compound 56, 2-((3-(4-Bromophenyl)isoxazol-5-yl)methylene)-1H-indene-1,3(2H)-dione], for which, in series [1], the Absmax worked out at 321 and the Emmax stood at 409. For the same compound, the Kd in series [2] (setting [4]) was at least 2000 nM. This compound returned a Kd in series [2] (setting [3]) above 2000 nM.
In series [1], `O=C1/C(=C\c2cc(-c3cccnc3)cs2)Cc2ccccc21` [compound 47, (Z)-2-((4-(Pyridin-3-yl)thiophen-2-yl)methylene)-2,3-dihydro-1H-inden-1-one] had an Absmax of 340 and an Emmax of 404. Also, the Kd in series [2] (setting [3]) came out at 333 ± 28.3 nM.
Turning to `CN(C)c1ccc(C=CC=C2C(=O)Oc3ccc(Br)cc3C2=O)cc1` [compound 28, 6-Bromo-3-(3-(4-(dimethylamino)phenyl)allylidene)chromane-2,4-dione], the Absmax in series [1] stood at 405. The results for the Kd in series [2] (setting [4]) and in series [2] (setting [3]) were at least 2000 nM and above 2000 nM, respectively.
`Cc1ccc2occ(/C=C3/Cc4ccc(O)cc4C3=O)c(=O)c2c1` [compound 57, (Z)-3-((6-Hydroxy-1-oxo-1,3-dihydro-2H-inden-2-ylidene)methyl)-6-methyl-4H-chromen-4-one]: in series [1], the Absmax came out at 326 and the Emmax is reported as 388. The compound further registered a Kd in series [2] (setting [3]) of 656 ± 88 nM.
In series [1], `O=C1/C(=C/C=C/c2ccc([N+](=O)[O-])cc2)Cc2ccccc21` [compound 10, (E)-2-((E)-3-(4-Nitrophenyl)allylidene)-2,3-dihydro-1H-inden-1-one] displayed an Absmax of 336 and an Emmax of 438.
In series [1], `O=C1/C(=C/C=C/c2ccc(Br)cc2)Cc2ccc(O)cc21` [compound 11, (E)-2-((E)-3-(4-Bromophenyl)allylidene)-6-hydroxy-2,3-dihydro-1H-inden-1-one] displayed an Absmax of 335 and an Emmax of 429. The same compound registered a Kd in series [2] (setting [4]) of at least 2000 nM. For the same compound, the equilibrium dissociation constant (Kd) in series [2] (setting [3]) is above 2000 nM.
With `O=C1C(=Cc2coc3ccc(Br)cc3c2=O)C(=O)c2ccccc21` [compound 54, 2-((6-Bromo-4-oxo-4H-chromen-3-yl)methylene)-1H-indene-1,3(2H)-dione], in series [1], the Absmax amounted to 336 and the Emmax is listed as 406. Besides, in series [2] (setting [3]), the Kd is above 2000 nM.
For `O=C1C(=C/C=C/c2ccc(Br)cc2)C(=O)c2ccccc21` [compound 17, (E)-2-(3-(4-Bromophenyl)allylidene)-1H-indene-1,3(2H)-dione] the same measures were 328, 419 and above 2000 nM.
For `O=C1/C(=C\c2ccc(-c3ccc(CO)cc3)s2)CCc2ccccc21` [compound 49, (Z)-2-((5-(4-(Hydroxymethyl)phenyl)thiophen-2-yl)methylene)-3,4-dihydronaphthalen-1(2H)-one] the same measures were 372, 551 and 162 ± 13.6 nM.
With `O=C1/C(=C/C=C/c2ccc(Br)cc2)Cc2ccccc21` [compound 7, (E)-2-((E)-3-(4-Bromophenyl)allylidene)-2,3-dihydro-1H-inden-1-one], in series [1], the Absmax is listed as 332 and the Emmax was found to be 430. The Kd in series [2] (setting [4]) was at least 2000 nM. For the same compound, the Kd in series [2] (setting [3]) was above 2000 nM.
In the case of `O=C1C(=C/C=C/c2ccc([N+](=O)[O-])cc2)C(=O)c2ccccc21` [compound 22, (E)-2-(3-(4-Nitrophenyl)allylidene)-1H-indene-1,3(2H)-dione], in series [1], the Absmax was determined as 336 and the Emmax was determined as 460. Moreover, in series [2] (setting [3]), binding was characterised by a dissociation constant (Kd) of 1330 ± 182 nM.
As for `O=C1/C(=C\c2cc(-c3ccc(CO)cc3)cs2)Cc2ccccc21` [compound 46, (Z)-2-((4-(4-(Hydroxymethyl)phenyl)thiophen-2-yl)methylene)-2,3-dihydro-1H-inden-1-one], in series [1], the Absmax is 368 and the Emmax is 454. In addition, the Kd in series [2] (setting [3]) came to 153 ± 7.9 nM.
For `O=C1/C(=C/C=C/c2ccc(-c3ccc(CO)cc3)cc2)Cc2ccc(O)cc21` [compound 31, (E)-6-Hydroxy-2-((E)-3-(4'-(hydroxymethyl)-[1,1'-biphenyl]-4-yl)allylidene)-2,3-dihydro-1H-inden-1-one] the same measures were 368, 540 and 126 ± 5 nM.
For `COc1cc(-c2ccc(/C=C3/CCc4ccccc4C3=O)s2)ccc1O` [compound 50, (Z)-2-((5-(4-Hydroxy-3-methoxyphenyl)thiophen-2-yl)methylene)-3,4-dihydronaphthalen-1(2H)-one] the same measures were 417, 596 and 111 ± 7.8 nM.
For `Cc1ccc2occ(C=C3C(=O)c4ccccc4C3=O)c(=O)c2c1` [compound 53, 2-((6-Methyl-4-oxo-4H-chromen-3-yl)methylene)-1H-indene-1,3(2H)-dione] the same measures were 428, 471 and above 2000 nM.
In series [1], `O=C1C(=C/C=C/c2ccccc2)C(=O)c2ccccc21` [compound 16, (E)-2-(3-Phenylallylidene)-1H-indene-1,3(2H)-dione] yielded an Absmax of 331 and an Emmax of 421. This compound also showed a dissociation constant Kd in series [2] (setting [3]) above 2000 nM.
Take `CN(C)c1ccc(/C=C/C=C2C(=O)c3ccccc3C2=O)cc1` [compound 19, (E)-2-(3-(4-(Dimethylamino)phenyl)allylidene)-1H-indene-1,3(2H)-dione]: the Absmax in series [1] came out at 416.
Regarding `O=C1C(=Cc2cc3ccccc3[nH]2)C(=O)c2ccccc21` [compound 55, 2-((1H-Indol-2-yl)methylene)-1H-indene-1,3(2H)-dione], in series [1], the Absmax was determined as 384 and the Emmax is 519. For the same compound, in series [2] (setting [3]), the dissociation constant (Kd) was 1180 ± 88 nM.
For “3-(3-(4-(Dimethylamino)phenyl)allylidene)chromane-2,4-dione [compound 27]”, in series [1], the Absmax is recorded as 442 and the Emmax amounted to 661.
In series [1], `O=C1/C(=C/C=C/c2ccc([N+](=O)[O-])cc2)Cc2cc(F)cc(F)c21` [compound 15, (E)-5,7-Difluoro-2-((E)-3-(4-nitrophenyl)allylidene)-2,3-dihydro-1H-inden-1-one] came in with an Absmax of 330 and an Emmax of 439. The compound further yielded a Kd in series [2] (setting [3]) of 398.1 ± 3.9 nM.
With `Nc1cccc(-c2ccc(/C=C3/Cc4ccccc4C3=O)s2)c1` [compound 38, (Z)-2-((5-(3-Aminophenyl)thiophen-2-yl)methylene)-2,3-dihydro-1H-inden-1-one], in series [1], the Absmax is 408 and the Emmax is 563. In addition, binding in series [2] (setting [3]) was characterised by a dissociation constant (Kd) of 160 ± 10 nM.
For `CN(C)c1ccc(C=CC=C2C(=O)Oc3ccccc3C2=O)cc1` [compound 26, 3-(3-(4-(Dimethylamino)phenyl)allylidene)chromane-2,4-dione] the same measures were 440, 657 and 119 ± 21.1 nM.
For `O=C1/C(=C\c2ccc(-c3ccc(CO)cc3)s2)Cc2ccc(O)cc21` [compound 44, (Z)-6-Hydroxy-2-((5-(4-(hydroxymethyl)phenyl)thiophen-2-yl)methylene)-2,3-dihydro-1H-inden-1-one] the same measures were 412, 545 and 134 ± 19.2 nM.
In series [1], `CN(C)c1ccc(/C=C/C=C2\Cc3ccc(O)cc3C2=O)cc1` [compound 12, (E)-2-((E)-3-(4-(Dimethylamino)phenyl)allylidene)-6-hydroxy-2,3-dihydro-1H-inden-1-one] came in with an Absmax of 406 and an Emmax of 614. In series [2] (setting [3]), this compound showed a Kd of 203 ± 15.9 nM.
In series [1], `COc1cc(C=CC=C2C(=O)Oc3ccccc3C2=O)ccc1O` [compound 25, 3-(3-(4-Hydroxy-3-methoxyphenyl)allylidene)chromane-2,4-dione] gave an Absmax of 490 and an Emmax of 621. In series [2] (setting [3]), the Kd worked out at 116.3 ± 0.7 nM.
In series [1], `CN(C)c1ccc(-c2ccc(/C=C/C=C3\Cc4ccc(O)cc4C3=O)cc2)cc1` [compound 30, (E)-2-((E)-3-(4'-(Dimethylamino)-[1,1'-biphenyl]-4-yl)allylidene)-6-hydroxy-2,3-dihydro-1H-inden-1-one] gave an Absmax of 414 and an Emmax of 597.
For `N#Cc1ccc(-c2ccc(/C=C/C=C3\Cc4ccc(O)cc4C3=O)cc2)s1` [compound 33, 5-(4-((E)-3-((E)-6-Hydroxy-1-oxo-1,3-dihydro-2H-inden-2-ylidene)prop-1-en-1-yl)phenyl)thiophene-2-carbonitrile] the same measures were 398 and 565.
